Values quoted from earlier work in US12534749B2, “Monoacylated MEL-producing microorganism” (NATIONAL INSTITUTE OF ADVANCED INDUSTRIAL SCIENCE AND …, priority 2019, dated 2026).

Settings: known value, T. Fukuoka et al., Carbohydrate Research 351 (2012) 81-86

CMC: 3.1 µM
Substance: diacylated MEL-B
